Measured values taken from US20250137032A1, “TWO-COMPONENT SYSTEMS FOR USE IN CELL-FREE GENE EXPRESSION” (priority 2023, published 2025).
Entries after “also recorded” stand apart in the source; their conditions may differ.

What was measured:
NarX [1] = target: T1, NarX (Escherichia coli, UniProt P0AFA2, T450I/V366A); test: Cell-free NarX-L system encapsulated in giant unilamellar vesicles; format: biochemical, E. coli; conditions: 1 mM nitrate, GUVs of POPC:cholesterol with rhodamine lipid, 30° C. 16 hours, with RNase
T1 construct: All genes were; made in house; host or cells: cell-free expression in situ, myTXTL E. coli extract (Arbor Biosciences), with synthetic lipid vesicles
T1 sequence (P0AFA2 other isoform, or with tags, fused parts or gaps V366A/T450I): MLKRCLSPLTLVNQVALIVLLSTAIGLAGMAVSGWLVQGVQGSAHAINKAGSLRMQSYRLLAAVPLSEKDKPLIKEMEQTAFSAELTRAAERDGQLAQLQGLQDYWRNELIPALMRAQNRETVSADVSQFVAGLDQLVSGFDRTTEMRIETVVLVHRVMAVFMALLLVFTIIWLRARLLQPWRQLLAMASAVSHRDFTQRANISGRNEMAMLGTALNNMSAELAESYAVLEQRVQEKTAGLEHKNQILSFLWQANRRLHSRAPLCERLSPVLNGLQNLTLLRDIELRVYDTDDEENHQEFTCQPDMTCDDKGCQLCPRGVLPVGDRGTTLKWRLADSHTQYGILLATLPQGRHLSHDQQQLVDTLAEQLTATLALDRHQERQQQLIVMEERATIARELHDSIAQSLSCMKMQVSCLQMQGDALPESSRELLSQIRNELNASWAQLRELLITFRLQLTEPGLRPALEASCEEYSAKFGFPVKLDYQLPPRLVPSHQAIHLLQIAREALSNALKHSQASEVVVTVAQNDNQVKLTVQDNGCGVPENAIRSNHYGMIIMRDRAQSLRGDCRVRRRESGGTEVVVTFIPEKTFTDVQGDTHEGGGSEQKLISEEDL
Source text: Over the last decade, many promising cell-free systems have been developed, enabling the delivery and sensing of a wide array of ligands in non-ideal environments. Cell-free systems have been encapsulated and administered to mice (47), lyophilized and used in resource limited settings (6, 7), and integrated into wearable materials to sense environmental contaminants (8). Towards the goal of creating cell-mimetic particles which can sense environmental stimuli in complex environments, such as the body, we encapsulated our cell-free system into giant unilamellar vesicles using the emulsion transfer method (FIG. 5A). We encapsulated cell-free extract containing plasmids encoding NarX, NarL, and the downstream protein (luciferase or mEGFP) into membranes composed of 1 POPC: 1 cholesterol and a rhodamine conjugated lipid. We hypothesized that by encapsulating cell-free reaction components into vesicles, NarX could insert into membranes and initiate signaling in response to exogenously added nitrate. […]
For samples containing the luciferase plasmid, 0.5 μL of NanoGlo Luciferase substrate was added to the reaction, and reactions were read on a Molecular Devices Spectra Max i3 plate reader. […] Images were analyzed using the Nikon NIS software.

NarX [2] = target: T1, NarX; test: Cell-free NarX-L nitrate sensing, nanoluciferase reporter luminescence; format: biochemical, E. coli
Source text: As a first step towards understanding how TCSs can be integrated into cell-free systems, we tested the functional expression of NarX and NarL. The analyte for this sensor, nitrate, is a known ground water contaminate (30), serves as a convenient input, and previous work has characterized and engineered NarL mutants and its cognate promoter (26), ensuring that downstream gene transcription is a result of cell-free expressed NarL. We assembled cell-free reactions containing the myTXTL system (31), three DNA templates, liposomes, and assessed the reactions in response to nitrate addition. Two templates contained genes for either NarX or a NarL mutant (26) under the control of T7 RNA polymerase. The third template served as a genetic reporter for TCS signaling and contained a reporter gene (nanoluciferase) under the control of a promoter to which NarL binds (32). Finally, we included 100 nm lipid vesicles composed of 1,2-dimyristoyl-sn-glycero-3-phosphocholine (DMPC) into which NarX could integrate (FIG. 1A). Upon addition of nitrate, NarX should phosphorylate NarL, which should then bind the reporter plasmid and induce downstream luciferase expression (FIG. 1A).
(§1) Protein expression was performed using the myTxTl system (Arbor Biosceinces). 5 μL reactions were assembled with 10 mM lipid, 0.1 nM plasmid encoding T7 RNA polymerase, 9.9 nM plasmids encoding NarX, NarL, and reporter gene (nano luciferase or GFP) in specified ratios, and various concentration of ligands. Cell-free reactions were allowed to progress at 30° C. for 16 hours. Luciferase luminescence was read using the NanoGlo luciferase system and GFP fluorescence (ex. 480 nm, em. 507 nm) was read using a Molecular Devices Spectra Max i3 plate reader. To calculate fold change, luminescence values in the presence of nitrate were divided by the luminescence values in the absence of nitrate for each replicate.

NarX [3] = target: T1, NarX; test: Lyophilized NarX-L reactions rehydrated in non-ideal media; format: biochemical, E. coli; conditions: 100 μM nitrate; rehydrated with Milli-Q water, lake water or FBS; 30° C.
Procedure: As a control, we flash froze reactions and allowed them to proceed without lyophilization. […] To remediate this, we lyophilized vesicles and reactions separately. When rehydrating reactions, we rehydrated vesicles with water and then mixed the rehydrated vesicles, lyophilized cell-free components, and rehydration media (water, lake water, or FBS) with or without 100 μM nitrate. We then allowed reactions to proceed at 30° C. […] To deploy biosensors out of the lab, one must understand how quickly they are able to sense a ligand. […] We furthermore envision that these systems could be leveraged to engineer targeted drug delivery systems or for point-of-use biosensing.
Cell-free reactions were prepared as above, omitting vesicles and ligand. Reactions and vesicles were then flash frozen and lyophilized overnight. Following lyophilization, vesicles were rehydrated in water and cell free reactions were rehydrated in various media, such as Mili-Q water, Lake Water from Lake Michigan, and 50% FBS containing either 100 μM nitrate or an equivalent volume of water. Vesicles and reactions were allowed to rehydrate for 30 minutes on ice. Finally, vesicles were added to each reaction to bring the total volume to 5 μL and reactions were allowed to proceed at 30° C. for 16 hours.

[4] = Dynamic light scattering of 100% POPC vesicles in the presence of ligands (liposome stability); format: physicochemical; conditions: 100% POPC vesicles in the presence of 1 mM ligand
[5] = tested on: cell-free protein synthesis; test: Cell-free protein synthesis (myTXTL): NarX western blot band intensity and luminescence; format: biochemical, E. coli; conditions: increasing ligand concentration; NarX band intensity / luminescence (FIG. 7, FIG. 14)
Procedure: as §1
1 μL of cell-free reaction was diluted to 15 μL in Laemlli buffer and heated at 95° C. for 10 minutes. Samples were then loaded and run on a 12% Mini-PROTEAN TGX Precast Protein Gel (Bio-Rad) at 150 V for 90 minutes. Wet transfer was performed onto a PVDF membrane (Bio-Rad) for 45 min at 100 V. Membranes were then blocked for an hour at room temperature in 5% milk in TBST (pH 7.6:50 mM Tris, 150 mM NaCl, HCl to pH 7.6, 0.1% Tween) and incubated for 1 hour at room temperature or overnight at 4° C. with primary solution (anti-Flag (Sigma F1804) or anti-Myc (ab32), diluted 1:1000 in 5% milk in TBST). Primary antibody solution was decanted, and the membrane was washed three times for 5 minutes in TBST and then incubated in secondary solution at room temperature for 1 hour (HRP-anti-Mouse (CST 7076) diluted 1:3000 in 5% milk in TBST). Membranes were then washed in TBST and incubated with Clarity Western ECL Substrate (Bio-Rad) for 5 min. Blots were imaged using an Azure Biosystems c280 imager and band intensities were quantified with ImageJ.

O=[N+]([O-])[O-].[Na+] [Nitrate, sodium nitrate]
sensing of exogenously added nitrate by encapsulated sensor (microscopy and bulk plate reader) (NarX [1]): able to sense exogenous nitrate
increase in luminescence in nitrate titration (NarX [2]; absence of vesicles (FIG. 1C)): 2 fold
increase in luminescence compared to reactions run in the absence of nitrate (NarX [2]; all components present, DMPC vesicles (FIG. 1B)): ~3 fold
time to differentiate a positive from a negative signal (luminescence over time) (NarX [2]; nitrate sample vs water sample, p<0.03, n=2 (FIG. 18)): 6.5 h
nitrate concentration at which the cell-free system lost sensitivity (NarX [2]; nitrate titration): 10 mM
detection of nitrate at levels as low as (NarX [2]; nitrate titration, cell-free system): 10 µM
specificity of activation by ligand (NarX [2]; wild-type NarX, nitrate vs nickel (FIG. 4F)): specifically turn ‘on’
sensing of nitrate after lyophilization and rehydration (NarX [3]): could sense 100 μM nitrate in all conditions
Diameter (nm) [4]: 123.26 nm
P.D.I. [4]: 0.278
effect on cell-free protein expression [5]: inhibit protein synthesis; also recorded: inhibits protein expression
